Earlier results on 2 compounds are cited in PMC10526633 (Structure (London, England : 1993), 2023).

For one data set, the system named is HER2 signaling. To be noted: highest tested concentration of 20 μM.
A further data set deals with SKBr3 cells. To be noted: highest tested concentration of 20 μM.
The next data set concerns N62Q mutant cells. Particulars: N62Q GRP94 mutant cells.

For `COC(=O)c1c(O)cc(O)c(Cl)c1CCc1nccn1Cc1ccccc1` [BnIm, methyl 2-(2-(1-benzyl-1H-imidazol-2-yl)ethyl)-3-chloro-4,6-dihydroxybenzoate], the “Effect on HER2 signaling in SKBr3 cells” value in the data set on HER2 signaling is listed as “no effect”. For the same compound, in the data set on SKBr3 cells, the “Cytotoxicity in SKBr3 cells” value is recorded as “no cytotoxicity”.
For the compound `CC(C)NCCCn1c(Sc2cc(Cl)cc(Cl)c2)nc2c(N)ncnc21` [PU-WS13], in the data set on GRP94 (EndoH, retains N-acetylglucosamine attached to Asn, ref Yan et al. cell Reports 2020), the “Effect of limited sugar removal on ligand binding to GRP94” value is “partially reduces”. For the same compound, in the data set with GRP94 (N217A mutant of GRP94), the “Effect of N217A mutation on ligand binding” value is “no effect”. Further, the “Effect of complete deglycosylation on GRP94 binding to ligand” value in the data set on GRP94 (PNGase F, ref Yan et al. cell Reports 2020) is recorded as “abolishes”. Moreover, the “Sensitivity of N62Q mutant cells to ligand” value in the data set with N62Q mutant cells is reported as “insensitivity”.
